{"source": "patent US10980809B2", "about": "“Urea-substituted aromatic ring-linked dioxane-quinazoline and -linked dioxane-quinoline compounds, preparation method therefor and use thereof” (BEIJING SCITECH-MQ PHARMACEUTICALS LIMITED, priority 2017, dated 2021)", "key": {"C-RAF": {"target": "C-RAF (Homo sapiens (Human), UniProt P04049)", "sequence (P04049 whole entry)": "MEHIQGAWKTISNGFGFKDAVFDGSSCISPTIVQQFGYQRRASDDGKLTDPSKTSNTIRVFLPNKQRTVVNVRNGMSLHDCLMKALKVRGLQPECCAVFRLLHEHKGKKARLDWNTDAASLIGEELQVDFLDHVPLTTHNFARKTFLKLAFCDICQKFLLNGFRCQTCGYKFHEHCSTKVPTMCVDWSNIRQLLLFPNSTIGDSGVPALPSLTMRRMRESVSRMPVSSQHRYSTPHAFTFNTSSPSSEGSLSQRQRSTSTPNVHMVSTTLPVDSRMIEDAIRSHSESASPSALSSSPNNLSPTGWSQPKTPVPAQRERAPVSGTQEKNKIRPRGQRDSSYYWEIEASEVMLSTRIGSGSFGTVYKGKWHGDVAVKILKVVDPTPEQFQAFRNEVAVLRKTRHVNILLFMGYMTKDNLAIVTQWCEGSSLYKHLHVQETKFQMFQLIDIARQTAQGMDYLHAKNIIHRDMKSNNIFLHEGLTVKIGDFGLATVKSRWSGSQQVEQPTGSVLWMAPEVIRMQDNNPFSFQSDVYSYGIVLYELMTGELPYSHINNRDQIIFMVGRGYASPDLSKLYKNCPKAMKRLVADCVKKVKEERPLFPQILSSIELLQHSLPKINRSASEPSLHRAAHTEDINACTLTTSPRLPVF", "assay": "Test of small molecule compounds for inhibiting the activity of C-RAF kinase (ADP-Glo)", "quoted_text": "(§11) Test of Small Molecule Compounds for Inhibiting the Activity of C-RAF and B-RAF Kinases\nThe test was carried out as follows:\n(§12) 1. Preparation of test compounds: according to the molecular weight of the compounds, an appropriate volume of DMSO was directly added to dissolve the test compounds. For storing the compound, the concentration of DMSO is 100%, and the final concentration of DMSO in the experimental system is 1%.\n(§13) Enzyme: B-RAF: 0.1 ng/l (the final concentration in the reaction system); C-RAF: 0.1 ng/μl (the final concentration in the reaction system)\n(§14) HPE: the reaction without enzyme (1% DMSO)\n(§15) ZPE: the reaction with enzyme but without compound (1% DMSO)\n(§16) a) 1 ul of 10-fold diluted compound or 10% DMSO was added to a 384-well assay plate,\n(§17) b) 4 ul enzyme solution or assay buffer was added to the wells of the assay plate,\n(§18) c) the plate was centrifuged at 1000 rpm for 1 minute to homogeneous,\n(§19) d) 5 ul of ATP-substrate mixture was added to the wells of the assay plate,\n(§20) e) the plate was shaked for mixing for 2 minutes,\n(§21) f) the plate was incubated at 30° C. for 1 hour,\n(§22) g) 10 ul of ADP-Glo reagent was added to the wells of the assay plate, and the plate was incubated for 40 minutes at 27° C.,\n(§23) h) 20 ul of kinase assay solution was added to the wells of the plate, and the plate was incubated for 30 minutes at 27° C.,\n(§24) i) the chemiluminescent signal was read with Envision.\n(§25) The IC50 values of the positive control compound and the test compounds were calculated using the Prism software according to the variable slope of the curve."}, "[1]": {"tested_on": "A549 lung cancer cell line", "assay": "Cell survival assay (CCK-8), A549", "format": "cell-based", "conditions": "Homo sapiens, A549 cells, 72 h incubation", "procedure": "(§1) Biological Example 3. Cell Survival Assay for Small Molecule Compounds\n(§2) The specific procedure was carried out as follows:\n(§3) 1. 600 μL of trypsin was added to a T75 cell culture flask, it was digested in a 37° C. incubator for about 1 min, then 5 mL of DMEM complete medium was added, which was blowed evenly, transferred to a 15 mL centrifuge tube, and centrifuged at 1000 rpm for 4 min;\n(§4) 2. The supernatant was discarded, 5 mL of DMEM complete medium was added, which was blowed evenly, and then mixed with 10 μL of cell suspension and 10 μL of 0.4% trypan blue, and reading was recorded using a cell counter;\n(§5) 3. Cells of […] different cell lines (MHCC97H, HuH7, HepG2, A549, 8505C) were seeded in 96-well plates at a cell density of 6000 cells/80 μL of complete medium/well, and cultured overnight. Only sterile water was added in the outer 36 wells of the 96-well plates, and the remaining inside 60 wells were used for cell experiments and controls;\n(§6) 4. Dilution of compounds: a total of 10 concentrations of the compounds were obtained using a 3-fold dilution from the starting concentration of 10 mM.\n(§7) 5. 20 μL of different compounds in different concentrations were added to each corresponding well, and the remaining wells were added with 20 μL of complete medium, the plate was shaked, and the concentration of DMSO in each well is 0.25%.\n(§8) 6. After incubation for 72 h, 10 μL of CCK-8 reagent was added to each well, and cultured at 37° C. for 1-2 h; the OD value was read at 450 nm.\n(§9) 7. Cell Viability (%)=[(As−Ab)/(Ac−Ab)]*100% • As: Experimental well (medium containing cells, CCK-8, compound) • Ac: Control well (medium containing cells, CCK-8) • Ab: Blank well (medium without cell and compound, CCK-8)\n(§10) Table (3) lists the determination results of the activity of representative compounds of the present disclosure against various cancer cells, wherein MHCC97H, HuH7, and HepG2 are liver cancer cell lines, A549 is a lung cancer cell line, and 8505C is a thyroid cancer cell line."}, "B-RAF": {"target": "B-RAF (Homo sapiens (Human), UniProt P15056)", "sequence (P15056 whole entry)": "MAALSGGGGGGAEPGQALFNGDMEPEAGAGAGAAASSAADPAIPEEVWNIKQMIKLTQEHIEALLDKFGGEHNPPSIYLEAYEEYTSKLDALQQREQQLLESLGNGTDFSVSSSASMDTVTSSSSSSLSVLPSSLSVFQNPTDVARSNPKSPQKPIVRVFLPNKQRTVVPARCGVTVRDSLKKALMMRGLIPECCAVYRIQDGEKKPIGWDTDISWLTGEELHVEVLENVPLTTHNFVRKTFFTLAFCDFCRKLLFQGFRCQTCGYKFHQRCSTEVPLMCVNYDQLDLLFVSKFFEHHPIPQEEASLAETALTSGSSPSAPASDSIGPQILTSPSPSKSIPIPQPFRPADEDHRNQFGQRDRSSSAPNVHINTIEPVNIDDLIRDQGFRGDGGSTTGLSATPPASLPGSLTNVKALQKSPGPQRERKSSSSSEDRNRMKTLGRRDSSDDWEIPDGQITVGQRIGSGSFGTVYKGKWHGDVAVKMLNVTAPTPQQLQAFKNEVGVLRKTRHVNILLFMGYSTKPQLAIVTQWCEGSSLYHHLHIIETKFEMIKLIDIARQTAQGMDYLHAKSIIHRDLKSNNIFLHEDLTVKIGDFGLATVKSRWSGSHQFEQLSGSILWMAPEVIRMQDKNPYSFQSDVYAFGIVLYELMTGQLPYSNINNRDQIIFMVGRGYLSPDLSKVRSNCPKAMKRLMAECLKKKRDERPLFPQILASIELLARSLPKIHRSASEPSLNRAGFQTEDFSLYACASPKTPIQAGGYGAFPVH", "assay": "Test of small molecule compounds for inhibiting the activity of B-RAF kinase (ADP-Glo)", "quoted_text": "as §11\nThe test was carried out as follows:\nas §12, §13, §14, §15, §16, §17, §18, §19, §20, §21, §22, §23, §24, §25"}, "[2]": {"tested_on": "8505C thyroid cancer cell line", "assay": "Cell survival assay (CCK-8), 8505C", "format": "cell-based", "conditions": "Homo sapiens, 8505C cells, 72 h incubation", "procedure": "as §1, §2, §3, §4, §5, §6, §7, §8, §9, §10"}, "[3]": {"tested_on": "MHCC97H liver cancer cell line", "assay": "Cell survival assay (CCK-8), MHCC97H", "format": "cell-based", "conditions": "Homo sapiens, MHCC97H cells, 72 h incubation", "procedure": "as §1, §2, §3, §4, §5, §6, §7, §8, §9, §10"}, "[4]": {"tested_on": "HepG2 liver cancer cell line", "assay": "Cell survival assay (CCK-8), HepG2", "format": "cell-based", "conditions": "Homo sapiens, HepG2 cells, 72 h incubation", "procedure": "as §1, §2, §3, §4, §5, §6, §7, §8, §9, §10"}, "VEGFR-2 kinase": {"target": "VEGFR-2 kinase (Homo sapiens (Human), UniProt P35968)", "sequence (P35968 20-1356)": "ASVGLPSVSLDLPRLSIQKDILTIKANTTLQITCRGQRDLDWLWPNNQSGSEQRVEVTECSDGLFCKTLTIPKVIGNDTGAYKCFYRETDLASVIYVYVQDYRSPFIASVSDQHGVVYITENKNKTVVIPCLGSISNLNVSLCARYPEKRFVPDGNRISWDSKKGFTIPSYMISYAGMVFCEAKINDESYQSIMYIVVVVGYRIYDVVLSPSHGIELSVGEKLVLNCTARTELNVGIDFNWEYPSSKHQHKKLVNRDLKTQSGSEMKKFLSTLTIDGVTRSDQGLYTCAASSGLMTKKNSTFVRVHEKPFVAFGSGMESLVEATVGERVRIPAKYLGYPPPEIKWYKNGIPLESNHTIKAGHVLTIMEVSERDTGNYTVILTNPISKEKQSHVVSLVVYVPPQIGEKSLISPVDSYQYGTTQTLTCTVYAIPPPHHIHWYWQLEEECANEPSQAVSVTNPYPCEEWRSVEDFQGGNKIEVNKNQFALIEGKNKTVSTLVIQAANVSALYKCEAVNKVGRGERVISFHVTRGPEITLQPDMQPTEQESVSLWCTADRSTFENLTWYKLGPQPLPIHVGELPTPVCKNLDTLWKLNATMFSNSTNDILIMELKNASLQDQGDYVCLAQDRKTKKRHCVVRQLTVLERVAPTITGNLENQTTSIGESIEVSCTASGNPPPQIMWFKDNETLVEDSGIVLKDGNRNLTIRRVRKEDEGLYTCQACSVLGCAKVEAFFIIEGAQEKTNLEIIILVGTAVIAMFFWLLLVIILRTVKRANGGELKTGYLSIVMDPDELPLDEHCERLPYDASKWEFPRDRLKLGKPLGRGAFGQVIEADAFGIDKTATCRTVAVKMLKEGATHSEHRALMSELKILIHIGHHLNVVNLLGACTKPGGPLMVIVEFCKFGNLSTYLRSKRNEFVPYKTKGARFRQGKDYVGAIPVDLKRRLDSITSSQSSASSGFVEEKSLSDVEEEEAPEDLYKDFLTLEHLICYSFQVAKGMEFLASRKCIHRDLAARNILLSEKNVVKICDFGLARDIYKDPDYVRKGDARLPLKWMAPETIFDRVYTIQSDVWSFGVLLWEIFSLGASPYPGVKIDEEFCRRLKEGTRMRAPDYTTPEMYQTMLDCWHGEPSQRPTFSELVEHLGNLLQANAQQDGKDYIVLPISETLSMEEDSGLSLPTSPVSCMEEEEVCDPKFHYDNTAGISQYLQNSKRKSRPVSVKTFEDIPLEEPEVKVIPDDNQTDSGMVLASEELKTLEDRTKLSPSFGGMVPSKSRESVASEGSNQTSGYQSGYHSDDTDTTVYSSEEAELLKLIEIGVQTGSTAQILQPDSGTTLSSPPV", "assay": "Test of small molecule compounds for inhibiting the activity of VEGFR-2 kinase", "format": "biochemical", "conditions": "class symbols A-D", "method_in_brief": "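Kinase pre-incubated with diluted compounds for 30 min at room temperature, then substrate/ATP mix added and reaction run 60 min at room temperature in the dark […]. Signal read on a plate reader.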"}, "[5]": {"tested_on": "HuH7 liver cancer cell line", "assay": "Cell survival assay (CCK-8), HuH7", "format": "cell-based", "conditions": "Homo sapiens, Huh-7, HuH7 cells, 72 h incubation", "procedure": "as §1, §2, §3, §4, §5, §6, §7, §8, §9, §10"}}, "data": [{"smiles": "COc1cc2ncnc(Oc3ccc(NC(=O)Nc4ccc(Cl)c(C(F)(F)F)c4)cc3)c2c2c1OCCO2", "note": "[Example 18, 1-(4-chloro-3-(trifluoromethyl)phenyl)-3-(4-((5-methoxy-2,3-dihydro-[1,4]dioxino[2,3-f]quinazolin-10-yl)oxy)phenyl)urea]", "values": [{"measurement": "IC50", "setting": "C-RAF", "value": "200 to 500", "unit": "nM"}, {"measurement": "IC50", "setting": "[1]", "value": 1040, "unit": "nM"}, {"measurement": "IC50", "setting": "B-RAF", "value": "200 to 500", "unit": "nM"}, {"measurement": "IC50", "setting": "[2]", "value": 23.2, "unit": "nM"}, {"measurement": "IC50", "setting": "[3]", "value": "> 2500", "unit": "nM"}, {"measurement": "IC50", "setting": "[4]", "value": 1740, "unit": "nM"}, {"measurement": "IC50", "setting": "VEGFR-2 kinase", "value": "< 50", "unit": "nM"}, {"measurement": "IC50", "setting": "[5]", "value": 1330, "unit": "nM"}]}, {"smiles": "COc1cc2ncnc(Oc3ccc(NC(=O)Nc4cc(C(F)(F)F)ccc4F)cc3)c2c2c1OCCO2", "note": "[Example 20, 1-(2-fluoro-5-(trifluoromethyl)phenyl)-3-(4-((5-methoxy-2,3-dihydro-[1,4]dioxino[2,3-f]quinazolin-10-yl)oxy)phenyl)urea]", "values": [{"measurement": "IC50", "setting": "C-RAF", "value": "[…]"}, {"measurement": "IC50", "setting": "[1]", "value": 1120, "unit": "nM"}, {"measurement": "IC50", "setting": "B-RAF", "value": "200 to 500", "unit": "nM"}, {"measurement": "IC50", "setting": "[2]", "value": 20.3, "unit": "nM"}, {"measurement": "IC50", "setting": "[3]", "value": 1720, "unit": "nM"}, {"measurement": "IC50", "setting": "[4]", "value": 302, "unit": "nM"}, {"measurement": "IC50", "setting": "VEGFR-2 kinase", "value": "< 50", "unit": "nM"}, {"measurement": "IC50", "setting": "[5]", "value": 856, "unit": "nM"}]}, {"smiles": "COCCOc1cc2ncnc(Oc3ccc(NC(=O)Nc4ccc(Cl)c(C(F)(F)F)c4)cc3)c2c2c1OCCO2", "note": "[Example 46, 1-(4-chloro-3-(trifluoromethyl)phenyl)-3-(4-((5-(2-methoxyethoxy)-2,3-dihydro-[1,4]dioxino[2,3-f]quinazolin-10-yl)oxy)phenyl)urea]", "values": [{"measurement": "IC50", "setting": "C-RAF", "value": "500 to 1000", "unit": "nM"}, {"measurement": "IC50", "setting": "[1]", "value": 428, "unit": "nM"}, {"measurement": "IC50", "setting": "B-RAF", "value": "500 to 1000", "unit": "nM"}, {"measurement": "IC50", "setting": "[2]", "value": 8.57, "unit": "nM"}, {"measurement": "IC50", "setting": "[3]", "value": "> 2500", "unit": "nM"}, {"measurement": "IC50", "setting": "[4]", "value": 2360, "unit": "nM"}, {"measurement": "IC50", "setting": "VEGFR-2 kinase", "value": "< 50", "unit": "nM"}, {"measurement": "IC50", "setting": "[5]", "value": 1260, "unit": "nM"}]}, {"smiles": "COCCOc1cc2ncnc(Oc3ccc(NC(=O)Nc4cc(C(F)(F)F)ccc4F)cc3)c2c2c1OCCO2", "note": "[Example 47, 1-(2-fluoro-5-(trifluoromethyl)phenyl)-3-(4-((5-(2-methoxyethoxy)-2,3-dihydro-[1,4]dioxino[2,3-f]quinazolin-10-yl)oxy)phenyl)urea]", "values": [{"measurement": "IC50", "setting": "C-RAF", "value": "[…]"}, {"measurement": "IC50", "setting": "[1]", "value": 194, "unit": "nM"}, {"measurement": "IC50", "setting": "B-RAF", "value": "200 to 500", "unit": "nM"}, {"measurement": "IC50", "setting": "[2]", "value": 5.35, "unit": "nM"}, {"measurement": "IC50", "setting": "[3]", "value": 714, "unit": "nM"}, {"measurement": "IC50", "setting": "[4]", "value": 123, "unit": "nM"}, {"measurement": "IC50", "setting": "VEGFR-2 kinase", "value": "< 50", "unit": "nM"}, {"measurement": "IC50", "setting": "[5]", "value": 585, "unit": "nM"}]}, {"smiles": "COCCOc1cc2ncnc(Oc3ccc(NC(=O)Nc4ccc(Cl)c(C(F)(F)F)c4)c(F)c3)c2c2c1OCCO2", "note": "[Example 48, 1-(4-chloro-3-(trifluoromethyl)phenyl)-3-(2-fluoro-4-((5-(2-methoxyethoxy)-2,3-dihydro-[1,4]dioxino[2,3-f]quinazolin-10-yl)oxy)phenyl)urea]", "values": [{"measurement": "IC50", "setting": "C-RAF", "value": "200 to 500", "unit": "nM"}, {"measurement": "IC50", "setting": "[1]", "value": 590, "unit": "nM"}, {"measurement": "IC50", "setting": "B-RAF", "value": "< 200", "unit": "nM"}, {"measurement": "IC50", "setting": "[2]", "value": 21.9, "unit": "nM"}, {"measurement": "IC50", "setting": "[3]", "value": 1230, "unit": "nM"}, {"measurement": "IC50", "setting": "[4]", "value": 926, "unit": "nM"}, {"measurement": "IC50", "setting": "VEGFR-2 kinase", "value": "< 50", "unit": "nM"}, {"measurement": "IC50", "setting": "[5]", "value": 1270, "unit": "nM"}]}, {"smiles": "O=C(Nc1ccc(Oc2ncnc3cc(OCCCN4CCOCC4)c4c(c23)OCCO4)c(F)c1)Nc1ccc(Cl)c(C(F)(F)F)c1", "note": "[Example 68, 1-(4-chloro-3-(trifluoromethyl)phenyl)-3-(3-fluoro-4-((5-(3-morpholinopropoxy)-2,3-dihydro-[1,4]dioxino[2,3-f]quinazolin-10-yl)oxy)phenyl)urea]", "values": [{"measurement": "IC50", "setting": "C-RAF", "value": "500 to 1000", "unit": "nM"}, {"measurement": "IC50", "setting": "B-RAF", "value": "200 to 500", "unit": "nM"}, {"measurement": "IC50", "setting": "VEGFR-2 kinase", "value": "< 50", "unit": "nM"}]}]}
